One molecule from patent US10081561B2, “Reduction of hydrogen sulfide and/or malodor gassing from water via the addition of peroxyacetic acid/hydrogen peroxide product” (priority 2013, dated 2018) can be followed below.

The structures appear in SMILES notation.

This test concerns aerobe population and SRP population. The experiment in a line: PAA demand study, assumed microbial kill efficiency (FIG. 2). As to conditions: assumed for FIG. 2. In kind it is cell-based. An excerpt: Referring now to FIG. 2 there is shown a graph of one such example. If we assume that in a given system the aerobe population is 1,000,000 per mL and the SRP population is 100,000 per mL and we perform a PAA demand study to understand the microbial kill efficiency we can then determine how much PAA to add to minimize the SRP population without killing so many aerobes that it is detrimental to the waste water plant. This graph assumes that reduction after treatment may be something like: 50% reduction with a 20 ppm PAA treatment, 90% reduction with a 40 ppm treatment, and 99% reduction with a 60 ppm treatment. The goal of treatment would be to suppress the SPR population as much as possible while still allowing a sufficient number of aerobes to survive and move into the waste process.

Consider `CC(=O)OO` [PAA, peroxyacetic acid], for which the reduction after treatment reads like this: (20 ppm PAA treatment) around 50%; (40 ppm treatment) around 90%; (60 ppm treatment) around 99%.
